Patent US20150315188A1, “COMPOUNDS AND METHODS FOR TREATMENT OF HYPERTENSION” (MEDIVATION TECHNOLOGIES, INC., priority 2012, published 2015)

Assays:
Parameters in all cases: purchased Milipore (Millipore)
[1] = target: T1, Human adrenergic α2B receptor (Homo sapiens, UniProt P18089); assay: Radioligand binding, adrenergic α2B (Protocol Group B); settings: Protocol Group B; for inhibition at 0.01 µM / Percentage inhibition of ligand binding, Adrenergic α2B (10 nM): 10 nM compound; for inhibition at 0.01 µM: read-out: Percentage inhibition of ligand binding, Adrenergic α2B (10 nM); for inhibition at 0.03 µM / Percentage inhibition of ligand binding, Adrenergic α2B (30 nM): 30 nM compound; for inhibition at 0.03 µM: read-out: Percentage inhibition of ligand binding, Adrenergic α2B (30 nM); for Percentage inhibition of ligand binding, Adrenergic α2B (0.1 μM) / inhibition at 0.1 µM: 0.1 μM compound; for inhibition at 0.1 µM: read-out: Percentage inhibition of ligand binding, Adrenergic α2B (0.1 μM); for Ki: estimated Ki, read-out: Ki α2B; for Percentage inhibition of ligand binding, Adrenergic α2B (10 nM): 0.01 µM; for Percentage inhibition of ligand binding, Adrenergic α2B (30 nM): 0.03 µM
T1 sequence (P18089 1-450): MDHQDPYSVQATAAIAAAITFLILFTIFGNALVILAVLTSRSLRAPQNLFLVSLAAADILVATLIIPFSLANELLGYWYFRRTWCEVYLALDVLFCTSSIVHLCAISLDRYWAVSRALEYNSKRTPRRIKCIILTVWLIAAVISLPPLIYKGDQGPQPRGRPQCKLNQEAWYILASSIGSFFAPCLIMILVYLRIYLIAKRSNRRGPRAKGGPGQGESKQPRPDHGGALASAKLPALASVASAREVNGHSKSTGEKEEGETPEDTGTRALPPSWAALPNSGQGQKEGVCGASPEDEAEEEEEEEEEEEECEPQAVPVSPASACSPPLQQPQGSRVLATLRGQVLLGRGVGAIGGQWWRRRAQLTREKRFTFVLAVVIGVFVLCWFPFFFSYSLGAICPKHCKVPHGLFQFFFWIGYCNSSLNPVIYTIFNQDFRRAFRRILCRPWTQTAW
Method in brief: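 Compounds at various concentrations in 1% DMSO were tested on recombinant membranes in Tris-HCl pH 7.4 buffer containing MgCl2, CaCl2 and 0.2% BSA.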

[2] = target: T2, Human adrenergic α2A receptor (Homo sapiens, UniProt P08913); assay: Radioligand binding, adrenergic α2A (Protocol Group B); settings: Protocol Group B; for Percentage inhibition of ligand binding, Adrenergic α2A (0.1 μM): 0.1 μM compound; for Percentage inhibition of ligand binding, Adrenergic α2A (0.3 μM) / inhibition at 0.3 µM: 0.3 μM compound; for inhibition at 0.3 µM: read-out: Percentage inhibition of ligand binding, Adrenergic α2A (0.3 μM)
T2 sequence (P08913 1-465): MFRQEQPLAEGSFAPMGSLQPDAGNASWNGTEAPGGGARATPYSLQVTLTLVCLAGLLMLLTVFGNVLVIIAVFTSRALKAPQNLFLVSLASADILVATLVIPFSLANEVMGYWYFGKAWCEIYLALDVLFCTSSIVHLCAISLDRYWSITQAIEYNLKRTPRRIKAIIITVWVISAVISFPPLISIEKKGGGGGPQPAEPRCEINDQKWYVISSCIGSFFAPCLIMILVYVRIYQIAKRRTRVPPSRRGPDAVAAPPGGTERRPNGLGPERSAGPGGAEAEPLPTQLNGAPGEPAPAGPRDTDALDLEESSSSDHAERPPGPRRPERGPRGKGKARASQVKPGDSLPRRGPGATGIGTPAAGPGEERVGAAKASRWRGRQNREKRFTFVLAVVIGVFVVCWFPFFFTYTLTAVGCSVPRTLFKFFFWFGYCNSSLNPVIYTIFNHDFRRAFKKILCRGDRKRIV
Method in brief: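 Compounds (1% DMSO vehicle, various concentrations) competed against 2 nM [^3H]MK-912 on recombinant receptor membranes for 60 min at 25° C, Tris-HCl pH 7.4 buffer with Mg2+, Ca2+, BSA. Bound radioligand filtered and counted; 10 μM rauwolscine set nonspecific binding. Values: percent inhibition of specific binding or estimated Ki.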

[3] = target: T3, Human adrenergic α1B receptor (Homo sapiens, UniProt P35368); assay: Radioligand binding, adrenergic α1B (Protocol Group B); settings: Protocol Group B; for Percentage inhibition of ligand binding, Adrenergic α1B (0.1 μM): 0.1 μM compound
T3 sequence (P35368 1-520): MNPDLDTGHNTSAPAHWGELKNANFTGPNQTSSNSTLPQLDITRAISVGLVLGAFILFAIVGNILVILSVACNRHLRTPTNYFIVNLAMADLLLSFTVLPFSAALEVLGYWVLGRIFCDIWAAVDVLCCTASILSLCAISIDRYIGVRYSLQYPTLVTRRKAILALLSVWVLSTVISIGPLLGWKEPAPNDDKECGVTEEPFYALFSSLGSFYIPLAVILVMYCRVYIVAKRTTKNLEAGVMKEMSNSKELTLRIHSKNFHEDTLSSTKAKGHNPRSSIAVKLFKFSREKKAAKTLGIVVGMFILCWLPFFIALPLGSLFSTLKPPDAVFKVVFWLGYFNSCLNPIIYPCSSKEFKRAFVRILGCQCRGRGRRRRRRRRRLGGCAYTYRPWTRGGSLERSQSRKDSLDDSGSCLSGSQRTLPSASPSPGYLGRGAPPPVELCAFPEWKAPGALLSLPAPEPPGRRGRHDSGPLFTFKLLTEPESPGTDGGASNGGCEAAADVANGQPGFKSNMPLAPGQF
Method in brief: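 Values are percent inhibition of specific [3H]prazosin (0.3 nM) binding or estimated Ki, from filtration counting. Human α1B recombinant membranes, Tris-HCl pH 7.4 buffer with MgCl2 and EDTA, 60 min at 25 °C, 1% DMSO vehicle; 10 μM prazosin defined nonspecific binding.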

Row | Compound | inhibition at 0.01 µM [1] [%] | inhibition at 0.03 µM [1] [%] | Percentage inhibition of ligand binding, Adrenergic α2B (0.1 μM) [1] [%] | Percentage inhibition of ligand binding, Adrenergic α2A (0.1 μM) [2] [%] | Percentage inhibition of ligand binding, Adrenergic α2A (0.3 μM) [2] [%] | Percentage inhibition of ligand binding, Adrenergic α1B (0.1 μM) [3] [%] | Percentage inhibition of ligand binding, Adrenergic α1B (0.3 μM) ([3]; 0.3 μM compound) [%] | inhibition at 0.1 µM [1] [%] | Ki [1] [nM] | inhibition at 0.3 µM [2] [%] | inhibition at 0.3 µM ([3]; 0.3 μM compound, read-out: Percentage inhibition of ligand binding, Adrenergic α1B (0.3 μM)) [%] | Percentage inhibition of ligand binding, Adrenergic α2B (10 nM) [1] [%] | Percentage inhibition of ligand binding, Adrenergic α2B (30 nM) [1] [%]
1 | CC(O)(Cn1c2c(c3cc(Cl)cc(F)c31)C1CCCN1CC2)c1ccncc1 (single isomer, unassigned) [52d] | 9 | 6 | 1 | −6 | 1 | −1 | 27 |  |  |  |  |  | 
2 | CC(O)(Cn1c2c(c3cc(Cl)cc(F)c31)C1CCCN1CC2)c1cccnc1 (single isomer, unassigned) [53a] | 87 | 97 |  | 60 |  | 12 |  | 98 | 1.7 | 74 | 50 |  | 
3 | CC(O)(Cn1c2c(c3cc(Cl)cc(F)c31)C1CCCN1CC2)c1cccnc1 (single isomer, unassigned) [53b] |  |  | 97 | 34 | 54 | 4 | 33 |  | 1.8 |  |  | 74 | 91
4 | CC(O)(Cn1c2c(c3cc(Cl)cc(F)c31)C1CCCN1CC2)c1cccnc1 (single isomer, unassigned) [53c] |  |  | 1 | −10 | −15 | 1 | −6 |  |  |  |  | −4 | 4
5 | CC(O)(Cn1c2c(c3cc(Cl)cc(F)c31)C1CCCN1CC2)c1cccnc1 (single isomer, unassigned) [53d] |  |  | −5 | 0 | 5 | −16 | −8 |  |  |  |  | −3 | −4
6 | CN1CCc2c(c3cc(C(F)(F)F)ccc3n2CC(OC2CCCC2)c2ccncc2)C1 (single isomer, unassigned) [60a] |  | 47 |  | 26 | 50 | 12 | 40 | 72 |  |  |  | 23 | 
7 | CN1CCc2c(c3cc(C(F)(F)F)ccc3n2CC(OC2CCCC2)c2ccncc2)C1 (single isomer, unassigned) [60b] |  |  | 59 | 3 | 12 | −9 | 8 |  |  |  |  | 6 | 28
8 | Cc1cc(F)c2c(c1)c1c(n2CC(C)(O)c2cccnc2)CC2CCCN2C1 (single isomer, unassigned) [61a] |  |  | 88 | 9 | 34 | 1 | 18 |  |  |  |  | 38 | 68
9 | Cc1cc(F)c2c(c1)c1c(n2CC(C)(O)c2cccnc2)CC2CCCN2C1 (single isomer, unassigned) [61b] |  |  | 28 | 6 | 22 | −7 | 11 |  |  |  |  | −8 | 3
10 | Cc1cc(F)c2c(c1)c1c(n2CC(C)(O)c2cccnc2)CC2CCCN2C1 (single isomer, unassigned) [61d] |  |  | 23 | −10 | −4 | 0 | 1 |  |  |  |  | 0 | 11
11 | Cc1cc(F)c2c(c1)c1c(n2CC(C)(O)c2ccncc2)CC2CCCN2C1 (single isomer, unassigned) [62a] |  |  |  | 14 |  | 22 | 43 | 72 |  | 30 |  | 21 | 45
